Drawing on patent publication US10829501B2 (BRISTOL-MYERS SQUIBB COMPANY, priority 2016, dated 2020), this text covers IC50 for 21 molecules.

Counter-ions that a name gives are not always drawn.

In the first test the target is ROCK2 (Homo sapiens, UniProt O75116). The experiment in a line: ROCK2 kinase inhibition assay (LABCHIP 3000 Reader, FITC peptide substrate).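 Also: rho kinase reaction read by separating phosphorylated from unphosphorylated peptide on chip, with inhibition of kinase activity computed per concentration across a dose-response series.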
ROCK2, sequence (O75116 whole entry, species assumed): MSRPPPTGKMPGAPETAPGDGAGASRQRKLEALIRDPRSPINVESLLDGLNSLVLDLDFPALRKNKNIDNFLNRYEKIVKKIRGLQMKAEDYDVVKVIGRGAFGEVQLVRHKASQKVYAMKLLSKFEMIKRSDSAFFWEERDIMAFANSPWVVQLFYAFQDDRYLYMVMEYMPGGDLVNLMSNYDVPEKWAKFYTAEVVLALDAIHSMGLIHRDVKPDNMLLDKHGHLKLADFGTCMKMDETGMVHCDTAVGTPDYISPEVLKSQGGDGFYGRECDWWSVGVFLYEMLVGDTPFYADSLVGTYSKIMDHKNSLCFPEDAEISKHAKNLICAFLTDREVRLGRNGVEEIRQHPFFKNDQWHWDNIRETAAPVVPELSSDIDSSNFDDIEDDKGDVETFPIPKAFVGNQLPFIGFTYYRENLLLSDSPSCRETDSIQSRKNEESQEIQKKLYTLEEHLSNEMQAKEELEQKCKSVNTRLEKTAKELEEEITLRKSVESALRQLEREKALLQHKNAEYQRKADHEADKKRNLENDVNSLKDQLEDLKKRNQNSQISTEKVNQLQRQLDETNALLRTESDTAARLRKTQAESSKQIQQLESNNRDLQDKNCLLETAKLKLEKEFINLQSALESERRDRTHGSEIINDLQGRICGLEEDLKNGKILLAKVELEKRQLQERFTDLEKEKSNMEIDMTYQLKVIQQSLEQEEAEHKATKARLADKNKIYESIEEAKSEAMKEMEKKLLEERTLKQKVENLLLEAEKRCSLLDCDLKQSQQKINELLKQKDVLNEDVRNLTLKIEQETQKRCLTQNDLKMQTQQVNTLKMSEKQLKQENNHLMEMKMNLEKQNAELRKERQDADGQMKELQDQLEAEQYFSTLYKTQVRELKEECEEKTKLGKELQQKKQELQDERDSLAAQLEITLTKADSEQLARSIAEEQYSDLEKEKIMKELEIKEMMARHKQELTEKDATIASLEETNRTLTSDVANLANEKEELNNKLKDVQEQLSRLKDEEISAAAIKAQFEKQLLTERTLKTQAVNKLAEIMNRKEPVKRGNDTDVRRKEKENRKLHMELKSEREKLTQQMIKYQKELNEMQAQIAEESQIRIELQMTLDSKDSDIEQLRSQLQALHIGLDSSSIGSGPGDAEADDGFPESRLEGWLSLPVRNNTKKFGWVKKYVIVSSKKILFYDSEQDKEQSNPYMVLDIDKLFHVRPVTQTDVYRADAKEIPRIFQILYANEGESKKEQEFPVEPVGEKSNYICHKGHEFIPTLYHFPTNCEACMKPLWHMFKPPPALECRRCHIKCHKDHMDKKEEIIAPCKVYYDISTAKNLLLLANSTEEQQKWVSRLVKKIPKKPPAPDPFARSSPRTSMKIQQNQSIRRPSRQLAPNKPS
Details: not given
The term IC50 denotes the midpoint of a concentration-inhibition curve. Take `CC(C)(O)COc1ccc2c(C(=O)NC3CC4(C3)CC(Oc3cc(-c5cccc(C(=O)O)c5)ccc3C(N)=O)C4)cnn2c1` (stereo not drawn) [Example 296, 4′-carbamoyl-3′-((6-(6-(2-hydroxy-2-methylpropoxy)pyrazolo[1,5-a]pyridine-3-carboxamido)spiro[3.3]heptan-2-yl)oxy)-[1,1′-biphenyl]-3-carboxylic acid]: the IC50 fell in the range of 5 to 50 nM. The same measure, in the same setting: as for `Cn1cc(-c2ccc3c(C(=O)N[C@H]4CC5(C4)C[C@H](Oc4ncccc4C(N)=O)C5)cnn3c2C2CC2)cn1` (stereo partly drawn) [Example 357, N-((aR)-6-((3-carbamoylpyridin-2-yl)oxy)spiro[3.3]heptan-2-yl)-7-cyclopropyl-6-(1-methyl-1H-pyrazol-4-yl)pyrazolo[1,5-a]pyridine-3-carboxamide], the figure is under 5 nM.

With `CC(C)(O)COc1ccc2c(C(=O)N[C@H]3CC4(C3)C[C@H](Oc3ncccc3C(N)=O)C4)nn(CC(C)(C)O)c2c1` (stereo partly drawn) [Example 127, N-((aR)-6-((3-carbamoylpyridin-2-yl)oxy)spiro[3.3]heptan-2-yl)-6-(2-hydroxy-2-methylpropoxy)-1-(2-hydroxy-2-methylpropyl)-1H-indazole-3-carboxamide, trifluoroacetate], the 50% inhibitory concentration (IC50) fell in the range of 5 to 50 nM. On the same count and under the same terms, the figure for `COCCOCCn1nc(C(=O)N[C@H]2CC3(C2)C[C@H](Oc2ncccc2C(N)=O)C3)c2ccccc21` (stereo partly drawn) [Example 78, N-((aR)-6-((3-carbamoylpyridin-2-yl)oxy)spiro[3.3]heptan-2-yl)-1-(2-(2-methoxy-ethoxy)ethyl)-1H-indazole-3-carboxamide, trifluoroacetate] is 50 to 250 nM; for `NC(=O)c1cccnc1O[C@H]1CC2(C[C@H](NC(=O)c3cnc4cc(N5CC[C@@H](F)C5)ccn34)C2)C1` (stereo partly drawn) [Example 329, N-((aR)-6-((3-carbamoylpyridin-2-yl)oxy)spiro[3.3]heptan-2-yl)-7-((R)-3-fluoropyrrolidin-1-yl)imidazo[1,2-a]pyridine-3-carboxamide] it is under 5 nM. The same measure, in the same setting: the figure for `NC(=O)c1cccnc1OC1CC2(CC(NC(=O)c3nnc4cc(N5CCOCC5)ccn34)C2)C1` [Example 179, N-((aR)-6-((3-carbamoylpyridin-2-yl)oxy)spiro[3.3]heptan-2-yl)-7-morpholino-[1,2,4] triazolo[4,3-a]pyridine-3-carboxamide] is 5 to 50 nM; for `[2H]C([2H])([2H])n1cc(-c2cc(C#N)cc(C(=O)N[C@H]3CC4(C3)C[C@H](Oc3ncccc3C(N)=O)C4)c2)cn1` (stereo partly drawn) [Example 181, 2-(((aR)-6-(3-cyano-5-(1-(methyl-d3)-1H-pyrazol-4-yl)benzamido)spiro [3.3]heptan-2-yl)oxy)nicotinamide, trifluoroacetate] it is under 5 nM. For the molecule `COCc1cccc(-c2ccc(C(N)=O)c(OC3CC4(CC(NC(=O)c5cnn6cc(OCC(C)(C)O)ccc56)C4)C3)c2)c1` (stereo not drawn) [Example 245, N-(6-((4-carbamoyl-3′-(methoxymethyl)-[1,1′-biphenyl]-3-yl)oxy)spiro[3.3]heptan-2-yl)-6-(2-hydroxy-2-methylpropoxy)pyrazolo[1,5-a]pyridine-3-carboxamide], the concentration for half-maximal inhibition (IC50) lay in the range of 5 to 50 nM. Regarding `CN(C)CCCc1ccc(C(N)=O)c(OC2CC3(CC(NC(=O)c4cnn5c(C6CC6)c(OCC(C)(C)O)ccc45)C3)C2)c1` (stereo not drawn) [Example 263, N-(6-(2-carbamoyl-5-(3-(dimethylamino)propyl)phenoxy)spiro[3.3]heptan-2-yl)-7-cyclopropyl-6-(2-hydroxy-2-methylpropoxy)pyrazolo[1,5-a]pyridine-3-carboxamide], the IC50 was 5 to 50 nM. `NC(=O)c1cccnc1O[C@H]1CC2(C[C@H](NC(=O)c3ncoc3-c3ccccc3)C2)C1` (stereo partly drawn) [Example 165, N-((aR)-6-((3-carbamoylpyridin-2-yl)oxy)spiro[3.3]heptan-2-yl)-5-phenyloxazole-4-carboxamide] registered an IC50 of 50 to 250 nM.

As for `NC(=O)c1cccnc1O[C@H]1CC2(C[C@H](NC(=O)c3cnn4c(C5CC5)c(OC5CCS(=O)(=O)CC5)ccc34)C2)C1` (stereo partly drawn) [Example 351, N-((aR)-6-((3-carbamoylpyridin-2-yl)oxy)spiro[3.3]heptan-2-yl)-7-cyclopropyl-6-((1,1-dioxidotetrahydro-2H-thiopyran-4-yl)oxy)pyrazolo[1,5-a]pyridine-3-carboxamide], the IC50 was under 5 nM. Still for that read-out and setting: the figure for `Cn1nc(C(=O)NC2CC3(C2)CC(Oc2ncccc2C(N)=O)C3)cc1-c1ccccc1` (stereo not drawn) [Example 396] is 5 to 50 nM; for `COc1ccc(C(N)=O)c(O[C@H]2CC3(C[C@H](NC(=O)c4nn(CC(C)(C)O)c5ccc(F)cc45)C3)C2)n1` (stereo partly drawn) [Example 169, N-((aR)-6-((3-carbamoyl-6-methoxypyridin-2-yl)oxy)spiro[3.3]heptan-2-yl)-5-fluoro-1-(2-hydroxy-2-methylpropyl)-1H-indazole-3-carboxamide] it is 5 to 50 nM. `Cc1cccc(C(N)=O)c1OC1CC2(CC(NC(=O)c3cnn4c(C5CC5)c(OCC(C)(C)O)ccc34)C2)C1` (stereo not drawn) [Example 214, N-(6-(2-carbamoyl-6-methylphenoxy)spiro[3.3]heptan-2-yl)-7-cyclopropyl-6-(2-hydroxy-2-methylpropoxy)pyrazolo[1,5-a]pyridine-3-carboxamide]: the IC50 fell in the range of 250 to 2500 nM. Still for that read-out and setting: as for `NC(=O)c1ccccc1OC1CC2(CC(NC(=O)c3cnn4cc(OC5CCOC5)ccc34)C2)C1` (stereo not drawn) [Example 4, N-(6-(2-carbamoylphenoxy)spiro[3.3]heptan-2-yl)-6-((tetrahydrofuran-3-yl)oxy)pyrazolo[1,5-a]pyridine-3-carboxamide], the figure is 5 to 50 nM. Still for that read-out and setting: the figure for `N#Cc1cc(C(=O)N[C@H]2CC3(C2)C[C@H](Oc2ncccc2C(N)=O)C3)ccc1F` (stereo partly drawn) [Example 156, 2-(((aR)-6-(3-cyano-4-fluorobenzamido)spiro[3.3]heptan-2-yl)oxy) nicotinamide] is 50 to 250 nM; for `CC(C)n1cc(-c2ccc3c(C(=O)N[C@H]4CC5(C4)C[C@H](Oc4ncccc4C(N)=O)C5)nnn3c2)c(C(F)(F)F)n1` (stereo partly drawn) [Example 366, N-((aR)-6-((3-carbamoylpyridin-2-yl)oxy)spiro[3.3]heptan-2-yl)-6-(1-isopropyl-3-(trifluoromethyl)-1H-pyrazol-4-yl)-[1,2,3]triazolo[1,5-a]pyridine-3-carboxamide] it is 5 to 50 nM; for `Cn1nc(C(=O)N[C@H]2CC3(C2)C[C@H](Oc2ncccc2C(N)=O)C3)cc1OCC1CC1` (stereo partly drawn) [Example 84, 2-((aR)-6-(5-(cyclopropyl-methoxy)-1-methyl-1H-pyrazole-3-carboxamido)spiro-[3.3]heptan-2-yl)oxy) nicotinamide, trifluoroacetate] it is 50 to 250 nM. Same read-out and setting: as for `NC(=O)c1ccccc1O[C@H]1CC2(C[C@H](NC(=O)c3cnn4ccccc34)C2)C1` (stereo partly drawn) [Example 303, N-((aR)-6-(2-carbamoylphenoxy)spiro[3.3]heptan-2-yl)pyrazolo[1,5-a]pyridine-3-carboxamide], the figure is 50 to 250 nM.

The test is the same for the next values; noted with them: read-out: ROCK2 Activity (ROCK2 IC50); 5 μM ATP, 1.5 μM peptide substrate, pH 7.5.
`NC(=O)c1cccnc1OC1CC2(CC(NC(=O)c3cc(N4CC5CCC(C4)O5)cc(C(F)(F)F)c3)C2)C1` [Example 456, 2-(((aR)-6-(3-(8-oxa-3-azabicyclo[3.2.1]octan-3-yl)-5-(trifluoromethyl)benzamido)spiro[3.3]heptan-2-yl)oxy)nicotinamide]: the IC50 is under 5 nM. Still for that read-out and setting: the figure for `NC(=O)c1cccnc1OC1CC2(CC(NC(=O)c3nc(Br)n4ccccc34)C2)C1` [Example 421, 3-bromo-N-((aR)-6-((3-carbamoylpyridin-2-yl)oxy)spiro[3.3]heptan-2-yl)imidazo[1,5-a]pyridine-1-carboxamide] is 5 to 50 nM.
